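Grown in 96-well plates, cells were treated for 48 hours with each compound at five concentrations. Insufficient inhibition: endpoint recorded as highest concentration tested. GI50 = concentration required for 50% inhibition of growth.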 Active and inactive are the calls of the source. Rule as the data show it: active = GI50 up to about 1.1 µM and inactive = higher.
Columns and labels:
Experiment in all cases: inhibition of tumour cell growth, NCI panel, 48 h
[1] = test system: TK-10
[2] = test system: 786-0
[3] = test system: SK-OV-3
[4] = test system: DMS-114
[5] = test system: NCI-H522
[6] = test system: SR
[7] = test system: SK-MEL-2
[8] = test system: DLD-1
[9] = test system: Malme-3M
[10] = test system: SNB-19
[11] = test system: SW-620
[12] = test system: A549
[13] = test system: NCI-H226
[14] = test system: OVCAR-3
[15] = test system: M19-MEL
[16] = test system: CAKI-1
[17] = test system: SK-MEL-28
[18] = test system: RPMI-8226
[19] = test system: CCRF-CEM
[20] = test system: SF-295
[21] = test system: KM12
[22] = test system: HL-60
[23] = test system: NCI-H460
[24] = test system: SF-268
[25] = test system: HCC 2998
[26] = test system: RXF 393
[27] = test system: U-251
[28] = test system: OVCAR-5
[29] = test system: OVCAR-4
[30] = test system: HOP-92
[31] = test system: A498
[32] = test system: LXFL 529
[33] = test system: K562
[34] = test system: SNB-78
[35] = test system: SF-539
[36] = test system: M14
[37] = test system: COLO 205
[38] = test system: HT-29
[39] = test system: ACHN
[40] = test system: DMS-273
[41] = test system: UO-31
[42] = test system: EKVX
[43] = test system: SN12C
[44] = test system: MOLT-4
[45] = test system: HOP-62
[46] = test system: HCT-116
[47] = test system: UACC-62
[48] = test system: UACC-257
[49] = test system: HCT-15
[50] = test system: OVCAR-8
[51] = test system: SNB-75
[52] = test system: NCI-H23
[53] = test system: KM-20L2
[54] = test system: IGROV-1
[55] = test system: LOX IMVI
[56] = test system: SK-MEL-5
[57] = test system: HOP-18

CC(C)S(=O)(=O)n1c(N)nc2ccc(/C(=N/O)c3ccccc3)cc21 [ENVIROXIME]
GI50 [1]: 32.4 µM (inactive)
GI50 [2]: 40.3 µM (inactive)
GI50 [3]: 22.4 µM (inactive)
GI50 [4]: 16.9 µM (inactive)
GI50 [5]: 17.2 µM (inactive)
GI50 [6]: 0.223 µM (active)
GI50 [7]: 20.9 µM (inactive)
GI50 [8]: 26.2 µM (inactive)
GI50 [9]: 45.4 µM (inactive)
GI50 [10]: 30 µM (inactive)
GI50 [11]: 21.8 µM (inactive)
GI50 [12]: 14.2 µM (inactive)
GI50 [13]: 4.63 µM (inactive)
GI50 [14]: 18.6 µM (inactive)
GI50 [15]: 34 µM (inactive)
GI50 [16]: 14.2 µM (inactive)
GI50 [17]: 36.1 µM (inactive)
GI50 [18]: 10.3 µM (inactive)
GI50 [19]: 10.6 µM (inactive)
GI50 [20]: 18.2 µM (inactive)
GI50 [21]: 20.6 µM (inactive)
GI50 [22]: 12.2 µM (inactive)
GI50 [23]: 26.1 µM (inactive)
GI50 [24]: 27.7 µM (inactive)
GI50 [25]: 22 µM (inactive)
GI50 [26]: 11.4 µM (inactive)
GI50 [27]: 39.3 µM (inactive)
GI50 [28]: 21 µM (inactive)
GI50 [29]: 23.5 µM (inactive)
GI50 [30]: 3.61 µM (inactive)
GI50 [31]: 8.32 µM (inactive)
GI50 [32]: 41.4 µM (inactive)
GI50 [33]: 27.2 µM (inactive)
GI50 [34]: 36.4 µM (inactive)
GI50 [35]: 15 µM (inactive)
GI50 [36]: 17.9 µM (inactive)
GI50 [37]: 17.5 µM (inactive)
GI50 [38]: 16.9 µM (inactive)
GI50 [39]: 13.7 µM (inactive)
GI50 [40]: 31.4 µM (inactive)
GI50 [41]: 17.3 µM (inactive)
GI50 [42]: 16.4 µM (inactive)
GI50 [43]: 27.8 µM (inactive)
GI50 [44]: 14 µM (inactive)
GI50 [45]: 13.9 µM (inactive)
GI50 [46]: 18.6 µM (inactive)
GI50 [47]: 23.1 µM (inactive)
GI50 [48]: 44.5 µM (inactive)
GI50 [49]: 23.4 µM
GI50 [50]: 30.3 µM (inactive)
GI50 [51]: 3.26 µM (inactive)
GI50 [52]: 21.8 µM (inactive)
GI50 [53]: 16 µM (inactive)
GI50 [54]: 19 µM (inactive)

CCCN(CCC)c1c([N+](=O)[O-])cc(C(=O)N(CC)CC)cc1[N+](=O)[O-]
GI50 [1]: 29 µM (inactive)
GI50 [2]: 27.5 µM (inactive)
GI50 [3]: 25.5 µM (inactive)
GI50 [4]: 10.9 µM (inactive)
GI50 [5]: 10.2 µM (inactive)
GI50 [55]: 16 µM (inactive)
GI50 [6]: 14.8 µM (inactive)
GI50 [7]: 16.7 µM (inactive)
GI50 [8]: 17.6 µM (inactive)
GI50 [9]: 16.3 µM (inactive)
GI50 [10]: 20 µM (inactive)
GI50 [11]: 28.6 µM (inactive)
GI50 [56]: 13.3 µM (inactive)
GI50 [12]: 12.3 µM (inactive)
GI50 [13]: 23 µM (inactive)
GI50 [14]: 14.5 µM (inactive)
GI50 [15]: 20.7 µM (inactive)
GI50 [16]: 25.1 µM (inactive)
GI50 [17]: 22.9 µM (inactive)
GI50 [18]: 11.9 µM (inactive)
GI50 [19]: 20.8 µM (inactive)
GI50 [20]: 23 µM (inactive)
GI50 [22]: 14 µM (inactive)
GI50 [23]: 15.9 µM (inactive)
GI50 [24]: 17.6 µM (inactive)
GI50 [25]: 37.1 µM (inactive)
GI50 [26]: 17.4 µM (inactive)
GI50 [27]: 15.5 µM (inactive)
GI50 [28]: 30.9 µM (inactive)
GI50 [32]: 19.1 µM (inactive)
GI50 [33]: 12.6 µM (inactive)
GI50 [34]: 31 µM (inactive)
GI50 [35]: 24.7 µM (inactive)
GI50 [36]: 23.2 µM (inactive)
GI50 [37]: 18.1 µM (inactive)
GI50 [38]: 22.6 µM (inactive)
GI50 [39]: 25.5 µM (inactive)
GI50 [40]: 17.6 µM (inactive)
GI50 [41]: 18 µM (inactive)
GI50 [42]: 18.6 µM (inactive)
GI50 [43]: 22.4 µM (inactive)
GI50 [44]: 16.4 µM (inactive)
GI50 [45]: 29.4 µM (inactive)
GI50 [46]: 13.6 µM (inactive)
GI50 [47]: 17.7 µM (inactive)
GI50 [48]: 16.3 µM (inactive)
GI50 [49]: 21.4 µM
GI50 [50]: 18.3 µM (inactive)
GI50 [51]: 21.3 µM (inactive)
GI50 [52]: 7.55 µM (inactive)
GI50 [53]: 18.4 µM (inactive)
GI50 [54]: 32.3 µM (inactive)

O=C1NC2OCC(O)C(O)C2O1 (stereo not given)
GI50 [1]: > 100 µM (inactive)
GI50 [2]: > 100 µM (inactive)
GI50 [3]: > 100 µM (inactive)
GI50 [4]: > 100 µM (inactive)
GI50 [5]: > 100 µM (inactive)
GI50 [55]: > 100 µM (inactive)
GI50 [6]: > 100 µM (inactive)
GI50 [7]: > 100 µM (inactive)
GI50 [8]: > 100 µM (inactive)
GI50 [9]: > 100 µM (inactive)
GI50 [10]: > 100 µM (inactive)
GI50 [11]: > 100 µM (inactive)
GI50 [56]: > 100 µM (inactive)
GI50 [12]: > 100 µM (inactive)
GI50 [14]: > 100 µM (inactive)
GI50 [15]: > 100 µM (inactive)
GI50 [16]: > 100 µM (inactive)
GI50 [17]: > 100 µM (inactive)
GI50 [19]: > 100 µM (inactive)
GI50 [20]: > 100 µM (inactive)
GI50 [21]: > 100 µM (inactive)
GI50 [22]: > 100 µM (inactive)
GI50 [23]: > 100 µM (inactive)
GI50 [24]: > 100 µM (inactive)
GI50 [25]: > 100 µM (inactive)
GI50 [27]: > 100 µM (inactive)
GI50 [28]: > 100 µM (inactive)
GI50 [29]: > 100 µM (inactive)
GI50 [30]: > 100 µM (inactive)
GI50 [31]: > 100 µM (inactive)
GI50 [32]: > 100 µM (inactive)
GI50 [33]: > 100 µM (inactive)
GI50 [34]: > 100 µM (inactive)
GI50 [35]: > 100 µM (inactive)
GI50 [36]: > 100 µM (inactive)
GI50 [37]: > 100 µM (inactive)
GI50 [38]: > 100 µM (inactive)
GI50 [39]: > 100 µM (inactive)
GI50 [40]: > 100 µM (inactive)
GI50 [41]: > 100 µM (inactive)
GI50 [42]: > 100 µM (inactive)
GI50 [43]: > 100 µM (inactive)
GI50 [44]: > 100 µM (inactive)
GI50 [57]: > 100 µM (inactive)
GI50 [45]: > 100 µM (inactive)
GI50 [46]: > 100 µM (inactive)
GI50 [47]: > 100 µM (inactive)
GI50 [48]: > 100 µM (inactive)
GI50 [49]: > 100 µM
GI50 [50]: > 100 µM (inactive)
GI50 [51]: > 100 µM (inactive)
GI50 [52]: > 100 µM (inactive)
GI50 [53]: > 100 µM (inactive)
GI50 [54]: > 100 µM (inactive)

From ChEMBL document CHEMBL1201862, “PubChem BioAssay data set” (2004)
